Data on 1 compound can be found in patent publication US8722070B2, “Active compound combinations having insecticidal and acaricidal properties” (Bayer CropScience AG, priority 2000, dated 2014).

The test system of experiment [1] is cotton aphid (Aphis gossypii). Nature of the experiment: Aphis gossypii test (cotton leaves dipped into the preparation of active compound). It counts as in vivo. The conditions noted are these: individual active compound, 1.6 ppm, cotton leaves (Gossypium hirsutum). From the text: (§1) The expected action for a given combination of two active compounds can be calculated as follows, using the formula of S. R. Colby, Weeds 15 (1967), 20-22):
(§2) • X is the kill rate, expressed as a percentage of the untreated control, when employing active compound A at an application rate of m g/ha or in a concentration of m ppm, • Y is the kilt rate, expressed as a percentage of the untreated control, when employing active compound B at an application rate of n g/ha or in a concentration of n ppm and • E is the kill rate, expressed as a percentage of the untreated control, when employing active compounds A and B at application rates of m and n g/ha or in a concentration of m and n ppm, then
(§3) If the actual insecticidal kill rate exceeds the calculated value, the action of the combination is superadditive, i.e. a synergistic effect is present. In this case, the actually observed kill rate must exceed the value calculated using the above formula for the expected kill rate (E).
(§4) After the desired period of time, the kill rate in % is determined. 100% means that all the animals have been killed; 0% means that none of the animals has been killed.
(§5) Solvent: 3 parts by weight of dimethylformamide
(§6) Emulsifier: 1 part by weight of alkylaryl polyglycol ether […]
After the desired period of time, the kill in % is determined. […] The kill rates that are determined are calculated using Colby formula.

In experiment [2] the test system is peach aphid (Myzus persicae). Nature of the experiment: Myzus test (cabbage leaves dipped into the preparation of active compound). It counts as in vivo. The note with it: individual active compound, 1.6 ppm, cabbage leaves (Brassica oleracea).
Source text: as §1, §2, §3, §4, §5, §6
After the desired period of time, the kill in % is determined. […] The kill rates determined are calculated using Colby's formula.

`CC1(C)C(C=C(Cl)Cl)C1C(=O)OC(C#N)c1ccc(F)c(Oc2ccccc2)c1` (centres unmarked) [cyfluthrin, Cyfluthrin]: the “Kill rates in % after 6d” value in experiment [1] stood at 75%. Also, the “Kill rates in % after 1d” value in experiment [2] is given as 25%.
